The source of these data is ChEMBL document CHEMBL4251620, “Biological evaluation of indolizine-chalcone hybrids as new anticancer agents” (Eur J Med Chem, 2018).

Test [1] relates to U-937. Kind of test: Cytotoxicity activity against human U937 cells assessed as cell viability at 1 uM after 48 hrs by CCK-8 assay. Format: functional. Conditions: U-937, 48 h, read-out: Activity. (In general: Tetrazolium assays rely on reduction of a dye to a coloured formazan, in cell work by metabolically active cells.)
Test [2] relates to U-937. In words: Induction of apoptosis in human U937 cells assessed as viable cells at 10 uM after 48 hrs by muse Annexin V/dead cell reagent staining-based flow cytometric analysis (reference value: 97.07%). Conditions: U-937, 48 h, read-out: Activity. The test is classed as functional.
The test system of test [3] is U-937. Kind of test: Induction of apoptosis in human U937 cells assessed as late apoptotic cells at 3 uM after 48 hrs by muse Annexin V/dead cell reagent staining-based flow cytometric analysis (reference value: 1%). The test is classed as functional. On the technique in general: Flow cytometry measures light scatter and fluorescence of single cells or particles in a stream.

Test [4] deals with U-937. Kind of test: Induction of apoptosis in human U937 cells assessed as viable cells at 3 uM after 48 hrs by muse Annexin V/dead cell reagent staining-based flow cytometric analysis (reference value: 97.07%). The test is classed as functional. Particulars: U-937, 48 h, read-out: Activity.
Test [5] concerns U-937. Kind of test: Induction of apoptosis in human U937 cells assessed as early apoptotic cells at 3 uM after 48 hrs by muse Annexin V/dead cell reagent staining-based flow cytometric analysis (reference value: 1.87%). The test is classed as functional.
The test system of test [6] is U-937. Kind of test: Induction of apoptosis in human U937 cells assessed as early apoptotic cells at 10 uM after 48 hrs by muse Annexin V/dead cell reagent staining-based flow cytometric analysis (reference value: 1.87%). The test is classed as functional.
Test [7] concerns U-937. Kind of test: Induction of apoptosis in human U937 cells assessed as necrotic cells at 3 uM after 48 hrs by muse Annexin V/dead cell reagent staining-based flow cytometric analysis (reference value: 0.06%). Format: functional.
For test [8], the system named is U-937. In words: Induction of apoptosis in human U937 cells assessed as necrotic cells at 10 uM after 48 hrs by muse Annexin V/dead cell reagent staining-based flow cytometric analysis (reference value: 0.06%). Format: functional.
Test [9] has as its system U-937. Kind of test: Induction of apoptosis in human U937 cells assessed as increase in caspase-3/7 activity at 3 uM after 6 hrs. The test is classed as functional, cell-based.
Test [10] relates to U-937. In words: Cytotoxicity activity against human U937 cells assessed as reduction in cell viability after 48 hrs by CCK-8 assay. The test is classed as functional, cell-based. Conditions: U-937, 48 h.
The test system of test [11] is U-937. Kind of test: Induction of apoptosis in human U937 cells assessed as late apoptotic cells at 10 uM after 48 hrs by muse Annexin V/dead cell reagent staining-based flow cytometric analysis (reference value: 1%). Format: functional.
The subject of test [12] is JeKo-1. Kind of test: Cytotoxicity activity against human JeKo1 cells assessed as reduction in cell viability after 48 hrs by CCK-8 assay. Conditions: JeKo-1, 48 h. Format: functional, cell-based.
The subject of test [13] is JeKo-1. In words: Induction of apoptosis in human JeKo1 cells at 10 uM after 48 hrs by muse Annexin V/dead cell reagent staining-based flow cytometric analysis (reference value: 5.21%). The test is classed as functional.
Test [14] deals with U-937. In words: Induction of apoptosis in human U937 cells at 10 uM after 48 hrs by muse Annexin V/dead cell reagent staining-based flow cytometric analysis (reference value: 2.95%). Format: functional.
The test system of test [15] is Raji. Kind of test: Cytotoxicity against human Raji cells assessed as reduction in cell viability after 48 hrs by CCK-8 assay. The test is classed as functional, cell-based.
The subject of test [16] is Raji. Kind of test: Induction of apoptosis in human Raji cells at 10 uM after 48 hrs by muse Annexin V/dead cell reagent staining-based flow cytometric analysis (reference value: 9.58%). Format: functional.
Test [17] concerns U-937. Kind of test: Cytotoxicity activity against human U937 cells assessed as reduction in cell viability at 1 uM after 48 hrs by CCK-8 assay. The test is classed as functional, cell-based.

Active and inactive are the calls of the source. The rule behind the calls is not given here.

As for `Cc1c(C(=O)/C=C/c2ccc(Br)o2)cc2cccn2c1C(=O)c1ccccc1`, in the test on U-937 [1], the viability at 1 µM was greater than 80%.
Regarding `Cc1c(C(=O)/C=C/c2ccncc2)cc2cccn2c1C(=O)c1ccccc1`, in the test with U-937 [2], the viability at 10 µM turned out to be 10.7%. In addition, the viability at 1 µM in the test on U-937 [1] was less than 80%. Also, the Activity in the test with U-937 [3] was 47.68%; in the test with U-937 [5], 30.03%; in the test with U-937 [6], 6.21%; with U-937 [7], 0.93%; in the test with U-937 [8], 0%; in the test with U-937 [11] it was 83.05%. Also, the viability at 3 µM in the test with U-937 [4] is 21.4%. Further, in the test on U-937 [9], the result was Active. Also, the IC50 in the test with U-937 [10] is 1.37 µM.
Consider `COc1cc(/C=C/C(=O)c2cc3cccn3c(C(=O)c3ccccc3)c2C)cc(OC)c1`, for which the IC50 with JeKo-1 [12] turned out to be 1.3 µM; with Raji [15] it was 1.99 µM; with U-937 [10] it was 1.12 µM. Moreover, the viability at 10 µM in the test on U-937 [2] was found to be 3.36%. Also, the viability at 1 µM with U-937 [1] is less than 80%. Besides, the Activity in the test with U-937 [3] worked out at 45.57%; in the test on JeKo-1 [13] it was 46.27%; in the test with U-937 [5] it was 39.59%; in the test with U-937 [14] it was 51.26%; in the test with U-937 [6] it was 8.22%; in the test with U-937 [7] it was 0.62%. Also, the figures for the Activity in the test with U-937 [8], with Raji [16] and with U-937 [11] were 0%, 33.78% and 88.41%, respectively. For the same compound, in the test with U-937 [4], the viability at 3 µM was 14.2%. The result with U-937 [9] was Active.
Consider `COc1cc(/C=C/C(=O)c2cc3cccn3c(C(=O)c3ccccc3)c2C)cc(OC)c1OC`, for which the IC50 in the test on U-937 [10] turned out to be 5.95 µM.
On to `Cc1c(C(=O)/C=C/c2ccc(Br)cc2)cc2cccn2c1C(=O)c1ccccc1`, for which the viability at 10 µM with U-937 [2] was 8.31%. Further, the viability at 1 µM in the test on U-937 [1] is less than 80%. The Activity in the test on U-937 [3] is 42.16%; with U-937 [5], 31.36%; in the test on U-937 [6], 14.54%; in the test on U-937 [7], 0.77%; in the test on U-937 [8], 0.59%; in the test on U-937 [11], 76.56%. Besides, the viability at 3 µM with U-937 [4] came to 25.7%. In addition, in the test with U-937 [9], the result was Active. Also, the IC50 in the test on U-937 [10] was determined as 1.38 µM.
With `COc1cc(/C=C/C(=O)c2cc3cccn3c(C(=O)c3ccco3)c2C)cc(OC)c1`, the IC50 in the test with U-937 [10] amounted to 7.53 µM.
As for `Cc1c(C(=O)/C=C/c2cccc(F)c2)cc2cccn2c1C(=O)c1ccccc1`, the viability at 1 µM with U-937 [1] is greater than 80%. Further, the outcome in the test with U-937 [17] was Active.
In the case of `Cc1c(C(=O)/C=C/c2ccc3ccccc3c2)cc2cccn2c1C(=O)c1ccccc1`, the viability at 1 µM in the test on U-937 [1] is greater than 80%.
Turning to `Cc1c(C(=O)/C=C/c2ccc([N+](=O)[O-])cc2)cc2cccn2c1C(=O)c1ccccc1`, the viability at 10 µM with U-937 [2] stood at 13.7%. The viability at 1 µM in the test on U-937 [1] was less than 80%. Also, the Activity is on record as 47.12% with U-937 [3]; 24.87% with U-937 [5]; 16.34% in the test with U-937 [6]; 1.57% in the test with U-937 [7]; 1.31% in the test on U-937 [8]; 68.63% with U-937 [11]. Moreover, in the test on U-937 [4], the viability at 3 µM was 26.4%. In the test on U-937 [9], the result was Active. The IC50 in the test with U-937 [10] was found to be 1.38 µM.
In the case of `Cc1c(C(=O)/C=C/c2ccccc2)cc2cccn2c1C(=O)c1ccccc1`, the viability at 1 µM in the test on U-937 [1] was greater than 80%.
`COc1cc(/C=C2\CCc3c(cc4cccn4c3C(=O)c3ccccc3)C2=O)cc(OC)c1`: the IC50 in the test on U-937 [10] amounted to 9.46 µM.
For `Cc1c(C(=O)/C=C/c2ccc(Br)s2)cc2cccn2c1C(=O)c1ccccc1`, the viability at 1 µM in the test on U-937 [1] is greater than 80%.
For the compound `COc1ccc(/C=C/C(=O)c2cc3cccn3c(C(=O)c3ccccc3)c2C)cc1`, the viability at 1 µM in the test with U-937 [1] was greater than 80%.
In the case of `COc1cccc(/C=C/C(=O)c2cc3cccn3c(C(=O)c3ccccc3)c2C)c1`, the viability at 1 µM in the test with U-937 [1] was greater than 80%.
Still for that read-out and setting: next, `COc1ccc(/C=C/C(=O)c2cc3cccn3c(C(=O)c3ccccc3)c2C)cc1OC`: greater than 80%.
For `Cc1c(C(=O)/C=C/c2ccc(Cl)cc2)cc2cccn2c1C(=O)c1ccccc1`, in the test with U-937 [1], the viability at 1 µM was greater than 80%. For the same compound, the result in the test on U-937 [17] was Active.
Turning to `COc1cccc2c1C(=O)c1c(O)c3c(c(O)c1C2=O)C[C@@](O)(C(=O)CO)C[C@@H]3O[C@H]1C[C@H](N)[C@H](O)[C@H](C)O1` [DOXORUBICIN], the IC50 in the test on JeKo-1 [12] was found to be 0.18 µM; in the test on Raji [15], 0.17 µM; in the test on U-937 [10] it was 0.28 µM. In addition, the figures for the Activity with JeKo-1 [13], in the test on U-937 [14] and in the test on Raji [16] were 87.92%, 74.66% and 95.35%, respectively.
As for `COc1ccc(C(=O)c2c(C)c(C(=O)/C=C/c3cc(OC)cc(OC)c3)cc3cccn23)cc1`, in the test with U-937 [10], the IC50 amounted to 6.56 µM.
Turning to `Cc1c(C(=O)/C=C/c2cccc(Cl)c2)cc2cccn2c1C(=O)c1ccccc1`, in the test on U-937 [2], the viability at 10 µM amounted to 7.84%. Besides, the viability at 1 µM with U-937 [1] is less than 80%. The Activity with U-937 [3] is 54.29%; in the test on U-937 [5], 29.36%; with U-937 [6] it was 5.94%; with U-937 [7], 0.55%; in the test on U-937 [8], 0.24%; with U-937 [11], 85.99%. In addition, the viability at 3 µM with U-937 [4] came out at 15.8%. The result with U-937 [17] and in the test with U-937 [9] was Active. The IC50 with U-937 [10] amounted to 1.28 µM.
Turning to `Cc1ccc(/C=C/C(=O)c2cc3cccn3c(C(=O)c3ccccc3)c2C)cc1`, the viability at 1 µM in the test on U-937 [1] is greater than 80%.
On the same count and under the same terms, next, `Cc1c(C(=O)/C=C/c2ccc3c(c2)OCO3)cc2cccn2c1C(=O)c1ccccc1`: greater than 80%; `COc1ccccc1/C=C/C(=O)c1cc2cccn2c(C(=O)c2ccccc2)c1C`: greater than 80%.
For `Cc1c(C(=O)/C=C/c2ccc(F)cc2)cc2cccn2c1C(=O)c1ccccc1`, the viability at 1 µM with U-937 [1] was greater than 80%. Further, in the test on U-937 [17], the result was Active.

As usually defined, the IC50 is the point on the concentration scale where inhibition reaches its midpoint.
